Reference: patent US10273266B2, “Multi-functional peptide benefiting expression, purification, stabilization and catalytic efficiency of recombinant proteins” (priority 2017, dated 2019)

Key:
Format in all cases: biochemical
[1] = biological target: Pseudomonas aeruginosa BBE lipoxygenase LOX-S1v1 (fused to self-assembling amphipathic peptide S1v1, […], SEQ ID NO.1), LOX gene SEQ ID NO.6 (Pseudomonas aeruginosa, UniProt Q9I4G8); assay: Lipoxygenase kinetics with linoleic acid, LOX-S1v1
Description: (§1) FIG. 1. (A) Genetic constructs of the His-tag fusion proteins; (B) Genetic constructs of the S1v1 fusion proteins. S1v1, AEAEAHAHAEAEAHAH; linker, PTPPTTPTPPTTPTPT; His-tag, HHHHHH; Enzymes represented the encoding gene of three proteins (pgl, lox and gfp, respectively) used in this study.
(§2) The nucleotide sequence of PGL gene from Bacillus subtilis WSHB04-02 is shown as SEQ ID NO.4. The nucleotide sequence of LOX gene from Pseudomonas aeruginosa BBE is shown as SEQ ID NO.6. The nucleotide sequence of GFP gene from Aequorea victoria is shown as SEQ ID NO.8. E. coli JM109 was used as the host strain for cloning. E. coli BL21 (DE3) and E. coli Rosetta (DE3) were used as the expression hosts. The pET-22b (+) plasmid was used for expressing the recombinant proteins.
(§3) Linoleic acid was dispersed in 0.15 M K2HPO4—KH2PO4 buffer (pH 7.5). The substrate solution was freshly prepared daily and saturated with oxygen for 5 min before testing. Standard analytical mixture (3 mL) contains 0.3 mM linoleic acid and about 1.67 μg/mL enzyme. One unit of activity was defined as enzyme required to synthesis 1 μmol hydroperoxide per min at 25° C. Hydroperoxidaton was determined at 234 nm in a spectrophotometer (UV-2450; Shimadzu Co., Kyoto, Japan). The initial linear part of the wave was used to calculate enzyme activity.
(2) The LOX gene (shown in SEQ ID NO. 6) was cloned into the recombinant vector pET-22b(+)/S1v1 at the restriction NcoI and XhoI sites to construct a recombinant plasmid pET-22b(+)/lox-S1v1.

[2] = biological target: Pseudomonas aeruginosa BBE lipoxygenase LOX-His (His-tag HHHHHH fusion), gene SEQ ID NO.6 (Pseudomonas aeruginosa, UniProt Q9I4G8); assay: Lipoxygenase kinetics with linoleic acid, LOX-His; settings: pH 7.5, 25° C., Value ± SD
Sequence of Pseudomonas aeruginosa BBE lipoxygenase LOX-His (His-tag HHHHHH fusion), gene SEQ ID NO.6 (Q9I4G8 19-685, looked up, natural form): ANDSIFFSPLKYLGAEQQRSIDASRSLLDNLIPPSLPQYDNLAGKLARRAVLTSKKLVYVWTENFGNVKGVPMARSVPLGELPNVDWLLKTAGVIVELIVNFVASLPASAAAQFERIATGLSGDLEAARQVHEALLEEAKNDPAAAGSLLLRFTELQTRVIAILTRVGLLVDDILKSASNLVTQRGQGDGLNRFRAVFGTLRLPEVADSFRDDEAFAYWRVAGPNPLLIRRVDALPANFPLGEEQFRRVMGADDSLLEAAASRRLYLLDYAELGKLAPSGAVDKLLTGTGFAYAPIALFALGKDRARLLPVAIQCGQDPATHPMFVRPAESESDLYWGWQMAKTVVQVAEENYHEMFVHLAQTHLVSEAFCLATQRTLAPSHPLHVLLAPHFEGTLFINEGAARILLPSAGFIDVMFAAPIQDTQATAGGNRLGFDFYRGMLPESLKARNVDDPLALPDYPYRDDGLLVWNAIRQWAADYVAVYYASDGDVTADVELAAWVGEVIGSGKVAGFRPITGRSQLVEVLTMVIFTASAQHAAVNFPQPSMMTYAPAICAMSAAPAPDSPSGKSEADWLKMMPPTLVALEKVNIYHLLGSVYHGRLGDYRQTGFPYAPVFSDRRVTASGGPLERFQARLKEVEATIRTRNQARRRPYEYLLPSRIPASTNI
Description: as §1, §2, §3

[3] = biological target: Pseudomonas aeruginosa BBE lipoxygenase (LOX, EC 1.13.11.12), wild-type, gene SEQ ID NO.6 (Pseudomonas aeruginosa, UniProt Q9I4G8); assay: Lipoxygenase kinetics with linoleic acid, wild-type LOX; settings: pH 7.5, 25° C., Value ± SD
Sequence of Pseudomonas aeruginosa BBE lipoxygenase (LOX, EC 1.13.11.12), wild-type, gene SEQ ID NO.6 (Q9I4G8 19-685, looked up, natural form): as above
Description: as §2, §3

[4] = increase of LOX-S1v1 than that of the wild-type LOX
[5] = linoleic acid, LOX-S1v1, pH 7.5, 25° C., Value ± SD

Sequence of Pseudomonas aeruginosa BBE lipoxygenase LOX-S1v1 (fused to self-assembling amphipathic peptide S1v1, […], SEQ ID NO.1), LOX gene SEQ ID NO.6 (Q9I4G8 20-685, added parts left off): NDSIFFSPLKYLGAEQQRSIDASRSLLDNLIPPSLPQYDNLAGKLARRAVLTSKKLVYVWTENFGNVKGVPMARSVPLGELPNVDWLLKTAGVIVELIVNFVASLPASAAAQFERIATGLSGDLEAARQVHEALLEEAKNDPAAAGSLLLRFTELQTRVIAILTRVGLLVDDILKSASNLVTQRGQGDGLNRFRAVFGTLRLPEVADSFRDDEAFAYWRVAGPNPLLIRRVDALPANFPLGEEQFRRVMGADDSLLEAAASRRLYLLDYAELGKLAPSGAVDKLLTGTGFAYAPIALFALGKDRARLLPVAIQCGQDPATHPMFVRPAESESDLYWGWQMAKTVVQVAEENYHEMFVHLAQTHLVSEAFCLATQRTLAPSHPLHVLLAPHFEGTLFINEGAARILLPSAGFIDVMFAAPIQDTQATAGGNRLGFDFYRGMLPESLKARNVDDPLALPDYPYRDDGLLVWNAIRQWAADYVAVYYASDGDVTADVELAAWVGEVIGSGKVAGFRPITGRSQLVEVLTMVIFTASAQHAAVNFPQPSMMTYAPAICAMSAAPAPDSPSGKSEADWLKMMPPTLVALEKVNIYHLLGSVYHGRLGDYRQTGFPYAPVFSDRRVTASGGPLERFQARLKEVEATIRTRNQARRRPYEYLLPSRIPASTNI

SMILES: CCCCC/C=C\C/C=C\CCCCCCCC(=O)O [linoleic acid, Linoleic acid]
- Km value (in words) ([1]; fusion enzymes compared with wild-types, decrease in substrate affinity after S1v1 peptide fusion): higher Km value
- catalytic efficiencies (kcat/Km) increase [1, 4]: 1.3 fold
- kcat value increase [1, 4]: 2.4 fold
- Km [1, 5]: 83 ± 2 µM
- kcat [1, 5]: 83.2 ± 3.25 S^−1
- Km [2]: 55 ± 2 µM
- kcat [2]: 25.21 ± 1.02 S^−1
- Km [3]: 57 ± 1.2 µM
- kcat [3]: 24.77 ± 0.97 S^−1
